US10603265B2, “Skin whitening peptide agents” (INSTITUT CURIE, priority 2014, dated 2020)
Several values for one entry are separate records, joined by “and”; a condition that tells them apart may be missing. Equal entries are not always repeated. Entries after “also recorded” stand apart in the source; their conditions may differ.

What was measured:
[1] = system: 3D human reconstructed pigmented epidermis; assay: Melanin assay on reconstructed human pigmented epidermis; type: cell-based; conditions: 10 days, 30 μM peptide, OD 492 nm, normalized to control
Protocol: FIG. 10: Melanin quantitation on 3D human reconstructed pigmented epidermis incubated 10 days with 30 μM of QA-3 peptides or AK-3 peptides. Synthetic epidermis were removed from their insert and dissolved in 400 μl of Solvable (Perkin Elmer) for 1 h at 100° C. Melanin quantification was performed on 200 μl by measuring the optical density at 492 nm. Melanin quantifications were normalized to the control. Both QA-3 and AK-3 peptides decreased about 22.5±13% or 21±10% the melanin production by synthetic skin epidermis. Data are presented as mean±standard deviation. *; p value (two tailed)<0.1.
Reconstructed human epidermal of phototype VI (Sterlab) were received at day 10 and incubated with the manufacturer's growth medium supplemented from day 11 to day 21 with 30 μg of peptides. As recommended, medium was changed every day. At day 21, the epidermis was separated from the insert, digested by incubation in 400 μl of Solvable (PerkinElmer) at 98° C. for 1 h. Melanin content was measured as optical density at 492 nm.

MNT-1 cells [2] = assay: Melanin assay on MNT-1 cells; type: cell-based, human; conditions: MNT1 melanocytes, 3 days, 10 μM peptide, OD 492 nm, normalized to H2O control
Protocol: FIG. 4: MNT1 melanocytes were cultured 3 days with 10 μM of QK-5 peptide (SEQ ID NO: 16) or H2O as a control. Melanin estimation was performed as previously described (Delevoye et al., J Cell Biol. 2009 Oct. 19; 187(2):247-64), and normalized to the control. QK-5 peptide incubation decreased the intracellular melanin content about 40±0.02%. Data are presented as mean±standard deviation. *; p value (two tailed)<0.05.
The skin whitening activity of the peptide may further be determined by measuring the melanin content of melanocytic cells such as MNT-1 cells, incubated with the peptide. For example, the assay may be carried out as follow: at day 1, 10^5 MNT-1 cells are seeded in 6-well plates; From day 2 to day 4, cells are grown in medium comprising 10 μM of peptides; at day 5, cells are disrupted by sonication in 50 mM Tris-HCl, pH 7.4, 2 mM EDTA, 150 mM NaCl, 1 mM dithiothreitol, and protease inhibitors. Pigment is pelleted at 20,000 g for 15 min at 4° C., rinsed once in ethanol/ether (1:1), and dissolved in 2 M NaOH/20% dimethylsulfoxide at 60° C.; Melanin content is measured as optical density at 492 nm.
At day 1, 10^5 cells were seeded in 6-well plates. From day 2 to day 4, cells were grown in medium containing 1 or 10 μg of peptides. Medium was changed every day. […] Melanin content was measured as optical density at 492 nm.

AP-1/KIF13A interaction = biological target: T1, AP-1/KIF13A interaction (Homo sapiens, UniProt Q9H1H9); assay: AP-1 immunoprecipitation / KIF13A western blot, MNT-1 melanocyte lysates incubated with peptides; type: biochemical; conditions: MNT-1 melanocytic cell lysates, 1 μg peptide, KIF13A/AP-1 band intensity normalized to control
T1 construct: endogenous in cells; host or cells: MNT-1 (MNT1) human melanocytic cells
Protocol: FIG. 2: γ-adaptin subunit of the human AP-1 complex was immunoprecipitated from melanocytes (MNT1) cell lysates in presence or not of 1 μg of the indicated peptides (peptides SS-5, EK-11 and QK-5: SEQ ID NO: 28, 1 and 16, respectively) for 2 h at 4° C. under rotation. […] EK-11 and SS-5 peptides were used as a positive and negative controls, respectively. Molecular weight in kDa.
FIG. 3: Intensity of the immunoprecipitated KIF13A and AP-1 bands shown in FIG. 2 were quantified using ImageJ. KIF13A intensity were divided by its corresponding AP-1 intensity and normalized to the control (lysates incubated without peptides, first lane).
Cells at 80% of confluency were washed in cold PBS and lysed on ice in lysis buffer (50 mM Tris, 150 mM NaCl, 0.1% Triton X-100, 10 mM EDTA, pH 7.2, and protease inhibitor cocktail, Roche). Lysates were incubated overnight with 1 μg of peptides. Lysates were first precleared using protein G agarose beads for 1 h at 4° C. under rotation. Supernatants were collected and incubated with protein G agarose beads with 1 μg mouse monoclonal IgG2b anti-CD9 for 1 h at 4° C. under rotation. Precleared supernatants were incubated with beads coated earlier with 1 μg mouse monoclonal IgG2b anti-γ-adaptin for 2 h at 4° C. under rotation. As negative control, 1 μg mouse monoclonal IgG2b anti-CD9 was used to immunoprecipitate the lysate. […]

[3] = biological target: T2, interaction of human AP-1 with human KIF13A (Homo sapiens, UniProt Q9H1H9); assay: AP-1 immunoprecipitation / KIF13A western blot, HeLa cell lysates incubated with peptides; type: biochemical; conditions: 1 μg peptide, vs control without peptide
T2 construct: incubating independently g of each 12 peptides with HeLa cell lysates (non pigmented cells); endogenous in cells; host or cells: HeLa cell lysate
Protocol: FIG. 1: γ-adaptin subunit of the human AP-1 complex was immunoprecipitated from HeLa cell lysates in presence or not of 1 μg of the indicated 11 amino acids peptides (peptides AI, QT, GN, EK, EL, WQ; NY, QF, LM, FF, LK and RI: SEQ ID NO: 17, 28, 20, 1, 25, 27, 22, 21, 24, 23, 19 and 26, respectively) for 2 h at 4° C. under rotation. […] Molecular weight in kDa.
Cells at 80% of confluency were washed in cold PBS and lysed on ice in lysis buffer (50 mM Tris, 150 mM NaCl, 0.1% Triton X-100, 10 mM EDTA, pH 7.2, and protease inhibitor cocktail, Roche). Lysates were incubated overnight with 1 μg of peptides. Lysates were first precleared using protein G agarose beads for 1 h at 4° C. under rotation. Supernatants were collected and incubated with protein G agarose beads with 1 μg mouse monoclonal IgG2b anti-CD9 for 1 h at 4° C. under rotation. Precleared supernatants were incubated with beads coated earlier with 1 μg mouse monoclonal IgG2b anti-γ-adaptin for 2 h at 4° C. under rotation. As negative control, 1 μg mouse monoclonal IgG2b anti-CD9 was used to immunoprecipitate the lysate.
After five washes in cold lysis buffer and three washes in PBS, immunoprecipitated proteins bound to the beads were incubated in sample buffer with reducing agent, boiled for 10 min at 95° C., and fractionated by SDS-PAGE using Nupage (3-8%) Tris-acetate gels (Invitrogen). […]

MNT-1 cells [4] = assay: Electron microscopy, grading of melanosome stages in MNT-1 cells; type: cell-based, human; conditions: MNT1 melanocytes, 3 days, 10 μM peptide, vs H2O control
Protocol: FIG. 6: MNT1 melanocytes were seeded on glass coverslips and cultured 3 days with 10 μM of QK-5 peptide (SEQ ID NO: 16; bottom panel) or H2O (top panel) as a control. Then cells were rapidly washed in DMEM at room temperature and fixed for 90 min with a mixture of 2.5% glutaraldehyde in 0.1 M cacodylate buffer for 90 min at 4° C., post-fixed with 1% OsO4/1.5% potassium ferrocyanide 45 min at 4° C., dehydrated in ethanol and embedded in Epon resin. Ultrathin (60-70 nm) sections were observed under a CM120 electron microscope (FEI company, Eindoven), equipped with a KeenView camera (Soft Imaging System; SIS, Germany). […] Scale bar: 2 μm.
FIG. 7: Melanosome stages were quantified based on their morphologies on MNT1 melanocytes treated as in FIG. 6. Stages I and II correspond to early non-pigmented melanosomes, melanin pigmentation is initiated in stage III, whereas stage IV is a fully mature and pigmented melanosome. Stages were counted and plotted as percentage of their total number.
Control and peptide-treated MNT-1 cells grown on coverslips for 3 days were fixed with 2.5% glutaraldehyde in 0.1M cacodylate buffer, pH 7.2 post-fixed with 1% OsO4 supplemented with 1.5% Potassium ferrocyanure, dehydrated in ethanol, and embedded in epon. Ultrathin sections were prepared with an Ulltracut UCT ultramicrotome (Leica) and observed under a CM120 electron microscope (FEI company, Eindoven) after counter-staining with uranyl acetate and lead citrate.
Grading of melanosomes stages from I to IV, based on morphology and melanin content, were done independently by two authors. The table below presents the criteria of analyses.

[5] = biological target: T3, co-localization of KIF13A with AP-1 (Homo sapiens, UniProt Q9H1H9); assay: Immunofluorescence colocalization of AP-1 with KIF13A in MNT-1 melanocytes; type: cell-based; conditions: MNT1 melanocytes, 3 days, 10 μM peptide, vs H2O control
T3 construct: endogenous in cells; host or cells: MNT-1 (MNT1) human melanocytic cells
Protocol: FIG. 5: MNT1 melanocytes were seeded on glass coverslips and cultured 3 days with 10 μM of QK-5 peptide (SEQ ID NO: 16) or H2O as a control. Cells were fixed in cold methanol and co-stained using a rabbit anti-human KIF13A and a mouse anti-human γ-adaptin as primary antibodies and goat anti-rabbit or mouse coupled to Alexa-488 or 546 (Molecular Probes). Coverslips were mounted in Dabco (Invitrogen) medium and images were acquired on an Eclipse 80i Upright Microscope (Nikon) and deconvoluted. Images are maximum-intensity z projections of up to 15 3D image stacks acquired using ImageJ software. Analysis was performed by quantifying the intensity of overlapping KIF13A and AP-1 pixels and by normalizing them to the control. QK-5 peptide incubation on melanocytes decreased about 84±7% the co-localization of KIF13A with AP-1. Data are presented as mean±standard deviation. ***; p value (two tailed)<0.001.
MNT-1 cells grown on coverslips were incubated for three days in medium containing 10 μg of peptides. Coverslips were rinsed in PBS, fixed in 100% cold methanol for 30 sec, followed by incubation in PBS and 1 mg/ml BSA. […]
Colocalization analysis was performed using ImageJ software. […] Then identical area inside cells were defined and analyzed for quantification.

T1 sequence (Q9H1H9 whole entry): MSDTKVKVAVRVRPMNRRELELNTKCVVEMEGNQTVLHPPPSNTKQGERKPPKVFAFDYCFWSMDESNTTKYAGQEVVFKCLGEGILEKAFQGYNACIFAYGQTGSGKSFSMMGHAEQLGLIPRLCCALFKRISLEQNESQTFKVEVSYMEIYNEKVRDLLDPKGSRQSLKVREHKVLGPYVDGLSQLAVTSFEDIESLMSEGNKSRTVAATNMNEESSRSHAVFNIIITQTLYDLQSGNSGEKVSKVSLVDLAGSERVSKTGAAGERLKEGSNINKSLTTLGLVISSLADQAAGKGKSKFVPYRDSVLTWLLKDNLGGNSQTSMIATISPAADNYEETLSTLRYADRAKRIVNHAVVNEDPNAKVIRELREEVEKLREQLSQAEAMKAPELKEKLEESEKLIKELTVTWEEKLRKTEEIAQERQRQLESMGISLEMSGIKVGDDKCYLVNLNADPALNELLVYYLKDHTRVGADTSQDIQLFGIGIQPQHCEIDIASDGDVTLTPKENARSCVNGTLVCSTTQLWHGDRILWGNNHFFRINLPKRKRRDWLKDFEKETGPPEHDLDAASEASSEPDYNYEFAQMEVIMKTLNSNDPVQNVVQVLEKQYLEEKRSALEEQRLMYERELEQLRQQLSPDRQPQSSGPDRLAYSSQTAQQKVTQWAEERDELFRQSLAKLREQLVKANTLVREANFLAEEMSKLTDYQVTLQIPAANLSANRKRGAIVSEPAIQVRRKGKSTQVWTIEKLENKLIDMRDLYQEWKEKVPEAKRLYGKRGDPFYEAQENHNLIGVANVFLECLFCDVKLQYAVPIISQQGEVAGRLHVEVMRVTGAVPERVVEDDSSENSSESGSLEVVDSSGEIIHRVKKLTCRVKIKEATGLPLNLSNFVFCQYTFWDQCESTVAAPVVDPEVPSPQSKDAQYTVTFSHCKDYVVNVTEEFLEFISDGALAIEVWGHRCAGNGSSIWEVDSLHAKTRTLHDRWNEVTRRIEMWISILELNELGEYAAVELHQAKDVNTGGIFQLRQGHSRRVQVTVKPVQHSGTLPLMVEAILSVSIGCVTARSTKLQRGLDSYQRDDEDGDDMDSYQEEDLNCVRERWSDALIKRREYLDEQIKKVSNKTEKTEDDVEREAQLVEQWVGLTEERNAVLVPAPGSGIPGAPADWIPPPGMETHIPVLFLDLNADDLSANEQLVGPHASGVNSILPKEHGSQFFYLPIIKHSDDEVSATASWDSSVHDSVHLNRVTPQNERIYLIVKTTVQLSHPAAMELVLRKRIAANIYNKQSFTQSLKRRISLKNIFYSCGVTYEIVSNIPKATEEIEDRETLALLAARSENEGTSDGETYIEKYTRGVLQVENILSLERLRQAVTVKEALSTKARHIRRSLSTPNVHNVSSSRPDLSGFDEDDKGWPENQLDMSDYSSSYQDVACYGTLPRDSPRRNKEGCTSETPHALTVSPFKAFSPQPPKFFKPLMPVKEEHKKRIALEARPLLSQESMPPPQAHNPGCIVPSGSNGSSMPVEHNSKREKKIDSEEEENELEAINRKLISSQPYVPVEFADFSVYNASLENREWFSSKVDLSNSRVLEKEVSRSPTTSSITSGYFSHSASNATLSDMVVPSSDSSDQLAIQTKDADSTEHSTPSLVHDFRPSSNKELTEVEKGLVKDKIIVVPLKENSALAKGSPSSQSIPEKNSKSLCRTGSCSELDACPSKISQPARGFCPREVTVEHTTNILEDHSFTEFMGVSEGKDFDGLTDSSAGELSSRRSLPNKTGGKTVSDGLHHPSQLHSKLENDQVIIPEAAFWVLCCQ
T2 sequence (Q9H1H9 whole entry): as above
T3 sequence (Q9H1H9 whole entry): as above

Substance | decrease of melanin production / pigmentation of reconstructed epidermis [1] | decrease of the intracellular melanin content (MNT-1 cells [2]) | decrease of the AP-1/KIF13A interaction (AP-1/KIF13A interaction) | decrease of the interaction of AP-1 with KIF13A [3] | early melanosome Stages (I and II) (MNT-1 cells [4]) | number of Stage III melanosomes (MNT-1 cells [4]) | number of Stage IV (fully mature pigmented) melanosomes (MNT-1 cells [4]) | decrease of the colocalization of KIF13A with AP-1 [5]
AVK [AK-3] | 21±10% | 22±8% and ~21.3±8% |  |  |  |  |  | 
EPLNNLQVAVK (listed as Homo sapiens) [EK-11] |  |  | 57.5±8% | about 52.6±7% |  |  |  | 
QVAVK (listed as Homo sapiens) [QK-5] |  |  | 56.1±6% |  | without affecting the early Stages (I and II) | increased their number of Stage III; also recorded: increased the number of less mature and pigmented stages III | decreased their number of Stage IV melanosomes; also recorded: fewer dark-pigmented granules; also recorded: decreased the number of stage IV melanosomes | about 84±7%
